Experimental data from US20060003382A1, “Compositions and methods for analyte detection” (priority 2004, published 2006).

Legend:
[1] = target: T1, egg white avidin (Gallus gallus, UniProt P02701); assay: Cyclic / square wave voltammetry of the complexes before and after addition of avidin; assay type: binding; settings: for current signal after addition of biotin to the avidin-bound complex (displacement): 25 equiv (25-fold excess) of biotin; for current signal of the redox couple upon addition of avidin: CV, glassy carbon electrode
T1 construct: Egg white avidin (Molecular Probes); purchased Molecular Probes; host or cells: egg white
Protocol: All operations involving Ru were carried out under argon according to standard Schlenk techniques. [(H2O)Ru(NH3)5]^2+ was either generated and isolated as the PF6^− salt according to the literature procedure and then used or the or Cl^− salt was used directly (See, e.g., Callahan et al., Inorg. Chem. 1975, 14, 1443-1453). Electrochemical experiments were carried out using a CH Instruments 660A workstation, a glassy carbon working electrode, a Ag/AgCl reference electrode and a platinum wire counter electrode.
A solution of [(4-BMP)Ru(NH3)5](PF6)2 in pH 9.3 phosphate buffer was prepared and the cyclic voltammogram obtained.
A solution of 1.0 mg [(4-DMP)Ru(NH3)5](PF6)2 in 4.2 mL 0.5M NaCl in H2O was prepared and the cyclic voltammogram obtained. […] To this was added 26 mg avidin, the CV obtained, and then 0.25 mL of a solution of methyl viologen (10 mg/5 mL; 7.77×10^−3M) was added and the CV remeasured.
A 19 mg portion of avidin was added, the CV and square wave voltammograms were recorded.
A 4.8×10^−5 M solution (0.75 mg) of [(4-DPEP)Ru(NH3)5](PF6)2 in pH 7.18 phosphate buffer was prepared and the cyclic voltammogram obtained.
The electrochemical experiments were performed in phosphate buffer at pH 9.3, 8.1, and 7.3, in 0.5M NaCl solution, and in pH 7.3 HEPES buffer.

[2] = target: T2, avidin (Gallus gallus, UniProt P02701); settings: non-covalent protein-small molecule interaction; cited from earlier work
[3] = target: T2, avidin; assay: Oxidation by [Ru(NH3)6]^3+, decrease of UV-visible absorption at 410 nm over time, free vs avidin-bound; settings: oxidant [Ru(NH3)6]^3+
Protocol: In the case of [(4-DPEP)Ru(NH3)5]^2+ the oxidant [Ru(NH3)6]^3+ was added and the decrease of the UV-visible absorption at 410 nm was monitored over time.

T1 sequence (P02701 25-152): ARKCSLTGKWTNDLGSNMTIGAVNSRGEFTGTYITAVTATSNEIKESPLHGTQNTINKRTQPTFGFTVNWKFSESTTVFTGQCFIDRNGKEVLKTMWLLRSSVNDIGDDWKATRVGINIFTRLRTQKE
T2 sequence (P02701 25-152): as above

| Molecule | current signal after addition of biotin to the avidin-bound complex (displacement) [1] | current signal after addition of biotin to the avidin-bound complex (displacement) ([1]; listed as [(4-DMP)Ru(NH3)5](PF6)2) | current signal of the redox couple upon addition of avidin [1] | effect of added electrochemical mediators on the current signal of the Ru couple ([1]; avidin present, mediators 4,4′-bipyridine and methyl viologen) | kd of binding to avidin [2] | current signal of the redox couple upon addition of avidin ([1]; listed as [(4-DPEP)Ru(NH3)5](PF6)2) | rate of oxidation, avidin-bound versus free complex [3] |
| --- | --- | --- | --- | --- | --- | --- | --- |
| [(4-DMP)RU(NH3)5][PF6]2 [[(4-DMP)Ru(NH3)5]^2+] | increased nearly to the original level | the signal was regenerated | decreased | no effect on the current signal | – | – | – |
| C[C@@H]1NC(=O)N[C@@H]1CCCCCC(=O)O [desthiobiotin] | – | – | – | – | only slightly lower than that of biotin-avidin | – | – |
| [(4-DPEP)Ru(NH3)5][PF6]2 [[(4-DPEP)Ru(NH3)5]^2+] | – | – | decreased the signal | – | – | disappeared upon addition of avidin | qualitatively slower |
